{"source": "patent US20210260057A1", "about": "“COMPOSITIONS AND METHODS TARGETING GLUTAMINE AND ITS METABOLISM FOR DIAGNOSING AND TREATING CANCER AND THERAPY-ASSOCIATED SIDE EFFECTS” (CEDARS-SINAI MEDICAL CENTER, priority 2018, published 2021)", "key": {"[1]": {"test_system": "RASAL3 mRNA in NAF", "assay": "RASAL3 mRNA expression (rtPCR) in NAF", "type": "cell-based, human", "settings": "5-day treatment; Bic 10^−5 M, Enza 10^−5 M, R1881 10^−9 M", "method": "(§1) RNA expression level. All real-time PCR assays were carried out using three technical replicates and three independent cDNA syntheses on a 7500 Real-Time PCR System (Applied Biosystems). Data were normalized using an internal control gene, either GAPDH or β-actin. Relative quantification of expression levels (RQ) was calculated using the ^2-ΔΔCt method."}, "[2]": {"test_system": "RASAL3 mRNA in CAF", "assay": "RASAL3 mRNA expression (rtPCR) in CAF", "type": "cell-based, human", "settings": "5-day treatment; Bic 10^−5 M, Enza 10^−5 M, R1881 10^−9 M, 5-Aza 5 mmol/L", "method": "as §1"}, "[3]": {"test_system": "RASAL3 promoter", "assay": "Methylation specific PCR of RASAL3 exon 2 in CAF", "type": "cell-based, human", "settings": "CAF after treatment", "method": "(FIG. 13A) Quantitative rtPCR analysis of RASAL3 in NAF and CAF was performed following 5 day treatment with bicalutamide (Bic, 10^−5 M), enzalutamide (Enza, 10^−5 M), R1881 (10^−9 M), or 5-Azacytidine (5-Aza, […]). RASAL3 expression was normalized GAPDH expression. Data represent the mean±SEM. *P<0.05, ***P<0.001, and ****P<0.0001, by two-way ANOVA followed by multiple comparison. Results are the average of at least three independent experiments. (FIG. 13B) MS-PCR of the RASAL3 exon 2 methylation status in CAF after treatment with enzalutamide, R1881, 5-Azacytidine and bicalutamide was performed. The PCR products in the lanes marked “U” indicate unmethylated templates for RASAL3 gene, whereas the products in the lanes marked “M” indicate methylated templates. Data are representative of three independent experiments."}, "[4]": {"test_system": "RASAL3 exon 2", "assay": "Bisulfite sequencing of RASAL3 exon 2 in CAF", "type": "cell-based, human", "settings": "CAF treated with R1881 for 5 days", "method": "Bisulfite Sequencing. Bisulfite sequencing was performed as described previously (Haldar S, Dru C, Mishra R, Tripathi M, Duong F, Angara B, Fernandez A, Arditi M, and Bhowmick N A. Histone deacetylase inhibitors mediate DNA damage repair in ameliorating hemorrhagic cystitis. Sci Rep. 2016; 6(39257). Briefly, genomic DNA was extracted from the NAF and CAF samples and 200 ng of DNA was bisulfite converted by using the EZ DNA Methylation-Gold Kit (Zymo Research, Irvine, Calif.) according to the manufacturer's protocol. Three overlapping primers were used for amplification of Exon 2 region of RASAL3 by ZymoTaq DNA polymerase (Zymo Research) and subsequently cloned into the pCR2.1-TOPO vector (Invitrogen by Life Technologies, Carlsbad, Calif.). The primer sequences used to amplify the three regions were designed by using the Meth-Primer program (www.urogene.org/methprimer/) and are listed in Table 4. Five clones from each sample were sequenced by using Sanger's method."}, "[5]": {"test_system": "human prostate cancer cells (CWR22Rv1)", "assay": "Gene expression in prostate cancer cells (FIG. 15A-D)", "type": "cell-based", "settings": "for Bone morphogenic protein (BMP) expression: CWR22Rv1 (FIG. 15A); for TET2 expression: FIG. 15C, 15D"}, "[6]": {"test_system": "bone marrow fibroblasts", "assay": "Glutamine expression by bone marrow fibroblasts", "type": "cell-based", "settings": "FIG. 15E, FIG. 17D", "method": "(§2) Measurements of glutamine. Glutamine was measured in blood plasma and conditioned media by using glutamine detection kit (Abcam) following manufacturer protocol. Deproteinization step was performed in plasma samples prior to glutamine detection. The absorbance was measured at 450 nm using a Bio-Rad Benchmark plus microplate spectrophotometer (Bio-Rad Laboratories)."}, "[7]": {"test_system": "prostatic fibroblasts", "assay": "Glutamine in conditioned media of prostatic fibroblasts", "type": "cell-based", "settings": "FIG. 17C", "method": "as §2"}, "[8]": {"test_system": "prostate cancer epithelial cells", "assay": "ALDH (stem marker) in prostate cancer epithelial cells", "type": "cell-based", "settings": "prostate cancer epithelial cells (FIG. 17A, 17B)"}, "[9]": {"test_system": "prostate cancer (serum PSA)", "assay": "PSA response of PCa patients on androgen targeted therapy", "type": "in vivo, human", "design": "PSA on treatment: unit not given beside the values", "text": "Plasma glutamine level may be prognostic for ADT sensitivity. Considering the striking finding that glutamine can induce ADT resistance, we tested if glutamine concentrations can be associated with ADT sensitivity in prostate cancer patients. We measured blood plasma glutamine concentrations in 28 PCa patients that received ADT (Table 1). Of note, the specific androgen signaling-axis interventions in the patient pool included, androgen receptor antagonists: bicalutamide, enzalutamide, and apalutamide, as well as androgen synthesis inhibitors: leuprolide, goserelin, triptorelin, and abiraterone."}, "[10]": {"test_system": "CWR22Rv1 and CAF tissue recombinants", "assay": "Castrate resistant sub-renal capsule xenograft (castration + enzalutamide)", "settings": "castrated mice treated with enzalutamide alone", "protocol": "Tissue recombination mouse models. Cell recombinants were prepared by mixing 2×10^5 epithelial (CWR22Rv1) cells with 6×10^5 CAFs or stromal cells expressing KRAS^V12 per site in collagen as described before (Banerj ee J, Mishra R, Li X, Jackson R S, 2nd, Sharma A, and Bhowmick N A. A reciprocal role of prostate cancer on stromal DNA damage. Oncogene. 2014; 33(41):4924-31). The mice were either left intact or castrated 1 week after grafting. […] Castrated mice were treated with enzalutamide (5 mg/kg) either alone or in combination with L-glutamic acid Υ-(p-nitroanilide) hydrochloride (GPNA; 10 mg/kg; Sigma-Aldrich) for three weeks. The tumor volumes were measured using digital calipers and calculated using the following formula: length (mm)×width (mm)×width (mm)×0.52. When the mice were sacrificed and tumors were excised and photographed. Formalin-fixed, paraffin-embedded (FFPE) xenograft tumor tissue was sectioned and stained with hematoxylin and eosin (H&E) and staining for chromogranin A, TUNEL, phosphorylated-hi stone H3 and phosphorylated-mTOR."}, "[11]": {"test_system": "CWR22Rv1", "assay": "qPCR of neuroendocrine marker genes, CWR22Rv1", "type": "cell-based, human", "settings": "CWR22Rv1, L-glutamine alone vs vehicle; F-test P<0.0001", "method": "as §1"}, "[12]": {"test_system": "C4-2B cells", "assay": "qPCR of neuroendocrine marker genes, C4-2B", "type": "cell-based, human", "settings": "L-glutamine 2 mM, P<0.0001", "method": "as §1"}, "[13]": {"test_system": "CWR22Rv1", "assay": "CWR22Rv1 proliferation by cell counting in conditioned media", "type": "cell-based, human", "settings": "NAF-CM supplemented with 0.4 mM glutamine, 72 hrs; compared to CAF-CM", "method": "(FIG. 3A) Relative mRNA expression levels of CAF-marker genes in WT and Ras^V12 mouse fibroblast determined by quantitative rtPCR and analyzed using 2-way ANOVA (n≤3). (FIG. 3B) EpCAM-positive cancer epithelial was quantitated by FACS of 3D co-cultures of human epithelial (CWR22Rv1) cells and WT or Ras^V12 mouse fibroblasts. Statistical analysis was performed using two-tailed student's t test (n≤3). (FIG. 3C) ATP was measured in CWR22Rv1 after incubation with conditioned media human NAF or CAF or mouse WT or Ras^V12 fibroblast or oligomycin in glutamine free media (n≤3). Statistical analysis was performed using 1-way ANOVA with multiple comparisons. (FIG. 3D) The diagram represents the TCA cycle in CWR22Rv1 cells treated with NAF- or CAF-conditioned media for 72 hours prior to metabolome analysis (n≤3). (FIG. 3E) The metabolome analysis further indicated differential flux to aspartate, oxidized GSH, and GSH-reduced in CWR22Rv1 cells incubated with NAF- or CAF-conditioned media. (FIG. 3F) Glutamine concentrations were measured in the conditioned media from indicated mouse fibroblasts cultured for 72 hours. (FIG. 3D-FIG. 3F) Statistical analysis was performed using two-tailed student's t test (n≤3). (FIG. 3G) CWR22Rv1 proliferation was measured by cell counting following incubation with NAF and CAF conditioned media for 72 hrs in glutamine free media. […]"}, "[14]": {"test_system": "CWR22Rv1", "assay": "Glutamine transporter gene expression, CWR22Rv1", "type": "cell-based, human", "settings": "CWR22Rv1, glutamine 2 mM", "method": "as §1"}, "[15]": {"test_system": "C4-2B", "assay": "Glutamine transporter and glutaminase gene expression, C4-2B", "type": "cell-based, human", "settings": "glutamine 2 mM", "method": "as §1"}}, "note": "Where “and” joins values, the source holds several entries; their conditions need not be identical. Identical values can stand only once."}
{"smiles": "C[C@]1(O)CC[C@H]2[C@@H]3CCC4=CC(=O)CCC4=C3C=C[C@@]21C", "note": "[R1881]", "values": [{"measurement": "RASAL3 mRNA expression in NAF", "setting": "[1]", "value": "no effect"}, {"measurement": "RASAL3 mRNA expression in CAF", "setting": "[2]", "value": "significantly elevated"}, {"measurement": "methylation of the RASAL3 promoter (methylation specific PCR)", "setting": "[3]", "value": "hypomethylation"}, {"measurement": "prevention of CpG methylation of RASAL3 exon 2, over vehicle treated CAF", "setting": "[4]", "value": 2.6, "unit": "fold"}]}
{"smiles": "CNC(=O)c1ccc(N2C(=S)N(c3ccc(C#N)c(C(F)(F)F)c3)C(=O)C2(C)C)cc1F", "note": "[enzalutamide]", "values": [{"measurement": "RASAL3 mRNA expression in NAF", "setting": "[1]", "value": "downregulated"}, {"measurement": "RASAL3 mRNA expression in CAF", "setting": "[2]", "value": "little effect"}, {"measurement": "methylation of the RASAL3 promoter (methylation specific PCR)", "setting": "[3]", "value": "hypermethylation"}, {"measurement": "Bone morphogenic protein (BMP) expression", "setting": "[5]", "value": "upregulated"}, {"measurement": "TET2 expression", "setting": "[5]", "value": "induces"}, {"measurement": "glutamine expression in bone marrow fibroblasts", "setting": "[6]", "value": "promotes"}, {"measurement": "glutamine expression in the conditioned media of prostatic fibroblasts", "setting": "[7]", "value": "promotes"}, {"measurement": "ALDH (stem marker)", "setting": "[8]", "value": "upregulates"}, {"measurement": "PSA on treatment", "setting": "[9]; individual PCa patient on the listed Rx", "value": "0.1 and 344.3 and <0.1 and 116.7"}, {"measurement": "Outcome", "setting": "[9]; individual PCa patient, responsiveness to ADT based on serum PSA", "value": "Responsive (2×) and Non- (2×)"}, {"measurement": "tumor growth under ADT", "setting": "[10]", "value": "expanded despite ADT"}]}
{"smiles": "NC(=O)CC[C@H](N)C(=O)O", "note": "[glutamine, L-glutamine]", "values": [{"measurement": "expression of neuroendocrine gene panel", "setting": "[11]", "value": "upregulated"}, {"measurement": "neuroendocrine differentiation (marker gene expression)", "setting": "[12]", "value": "induce neuroendocrine differentiation"}, {"measurement": "Bone morphogenic protein (BMP) expression", "setting": "[5]", "value": "upregulated"}, {"measurement": "TET2 expression", "setting": "[5]", "value": "upregulates"}, {"measurement": "osteopotegrin (OPG) and FoxMl expression", "setting": "[5]; increasing doses of Gln (FIG. 15B)", "value": "upregulates"}, {"measurement": "ALDH (stem marker)", "setting": "[8]", "value": "upregulates"}, {"measurement": "CWR22Rv1 proliferation", "setting": "[13]", "value": "restored CWR22Rv1 proliferation"}, {"measurement": "SLC38A1 transporter expression", "setting": "[14]", "value": "did not seem to be regulated"}, {"measurement": "expression of glutamine importers SLC1A5 and SCL38A2", "setting": "[14]; time dependent", "value": "consistently increased"}, {"measurement": "SLC38A1 transporter expression", "setting": "[15]", "value": "did not seem to be regulated"}, {"measurement": "expression of glutamine importers SLC1A5 and SCL38A2", "setting": "[15]; time dependent", "value": "consistently increased"}, {"measurement": "GLS and GLS2 mRNA expression", "setting": "[15]; within 6 hours of treatment", "value": "promote"}]}
